Measured values: a melting point compilation (Tetko et al.; mined from patent text by program, amines drawn as free bases though some values may be those of a salt)

First: CC(=O)Nc1nc(NC(C)=O)nc(C2CCC(c3ccccc3)CC2)n1 (configuration not stated)
Second: O=C(O)c1cnc(NCc2cccs2)nc1-c1ccccc1
The melting point of the first is higher: 235 to 236 °C for the first, 212 to 213 °C for the second.

First: Cc1nn(CCO)c(C)c1Oc1cc(Cl)cc(C#N)c1
Second: Cc1cc(C#N)cc(Oc2nc(Cl)nc(Cl)c2C(C)C)c1
The melting point of the first is lower: 114 to 116 °C for the first, 143 to 144 °C for the second.

First: COc1ccc(-c2c3ccccc3cc3sc4ccccc4c23)cc1
Second: Cc1oc(-c2ccccc2)nc1COc1ccc2c(-c3ccccc3)c(CO)oc2c1
The melting point of the first is higher: 220 to 221 °C for the first, 152 to 153 °C for the second.

First: NS(=O)(=O)c1cc2c(s1)SC(CCO)CN2 (configuration not stated)
Second: CN(c1cccc2cc(C(N)=S)[nH]c12)S(=O)(=O)c1cccs1
The melting point of the first is lower: 145 to 147 °C for the first, 239 to 240 °C for the second.

Compared with `N#Cc1cccnc1N1CCN(CCCCc2ccc(-c3csc(N)n3)cc2)CC1`, `CCCCc1cc(NCc2ccc(-c3ccccc3C#N)cc2)n2nccc2n1` is higher in melting point: 155 to 162 °C for the first, 200 to 202 °C for the second.

Compared with `CCOC(=O)COc1ccc(CBr)cc1`, `CCOC(=O)COc1ccc(NC(=O)c2cnc(NC(=N)N)s2)cc1` is higher in melting point: 44 to 45 °C for the first, 218 °C for the second.

First: Cc1cc(CCC(=O)O)cc(-c2nc(=O)c3ccccc3s2)n1
Second: COc1ccccc1NC(=O)Nc1nc(N(CCC(=O)O)Cc2ccc(Cl)c(Cl)c2)nc(=O)[nH]1
The melting point of the first is higher: 233 to 235 °C for the first, 188 °C for the second.

First: CCOC(=O)c1sc(C2=C(C)NC(C)=C(C(=O)OC)C2c2ccccc2[N+](=O)[O-])nc1C (configuration not stated)
Second: COC(=O)C(C(=O)OC)C(Cc1c([N+](=O)[O-])cccc1C(F)(F)F)c1ccc(OC)cc1 (configuration not stated)
The melting point of the first is higher: 191 to 192 °C for the first, 117 to 119 °C for the second.

Compared with `COC(=O)c1cnc(N2CCN(c3nc4ccc(C(F)(F)F)cc4[nH]3)CC2)c(Cl)c1`, `O=C(NCCCN1CCN(c2ccc(F)cc2OCC(F)(F)F)CC1)c1conc1-c1ccc(F)cc1` is lower in melting point: 153 to 159 °C for the first, 122 to 123 °C for the second.

First: C#CCOC(=O)c1cccnc1C1=NC(C)(C(C)C)C(=O)N1 (configuration not stated)
Second: CCOC(=O)c1cn(-c2nnc(C)s2)c2cc(F)c(F)cc2c1=O
The melting point of the first is higher: 188 to 190 °C for the first, 170 to 173 °C for the second.

Compared with `COc1ccccc1-c1cc(C2CCN(Cc3ccc(Cl)cc3)CC2)n[nH]1`, `Cn1cc(C(=O)Nc2ccccc2-c2ccc(Cl)cc2)c(C(F)(F)F)n1` is higher in melting point: 102 to 103 °C for the first, 144 to 146 °C for the second.

First: CC(=O)NCCOc1cc(-c2ccccc2)on1
Second: COC(=O)c1cc(OC)c(OCc2ccccc2)c(OC)c1
The melting point of the first is higher: 144 to 145 °C for the first, 62 to 65 °C for the second.

First: Cc1cn(-c2cccc([N+](=O)[O-])c2)cn1
Second: CS(=O)(=O)Oc1cnc2ccccc2c1O
The melting point of the first is lower: 119 to 120 °C for the first, 224 °C for the second.

First: CC(=O)Nc1cnc(-c2cc(Cl)ccc2Cl)c(N)n1
Second: CC(=O)N(Cc1ccc(Cl)cc1Cl)c1cncnc1
The melting point of the first is higher: 152 to 154 °C for the first, 134 to 136 °C for the second.

Compared with `C[C@@H]1CCCN1CCc1ccc2cc(-c3ccc(C#N)cc3)ccc2n1`, `CCCN(C(C)=O)c1ccc(C(=O)N2CCN(CCc3ccc(Cl)cc3)CC2)cc1` is lower in melting point: 164 °C for the first, 112 to 113 °C for the second.

First: COc1ccc(-c2nnn(-c3ccc(F)cc3Cl)c2N)cc1
Second: O=C(O)Cc1c(-c2ccccc2)nn(-c2ccccc2Cl)c1-c1ccccc1
The melting point of the first is lower: 136 to 141 °C for the first, 191 to 193 °C for the second.

First: CCc1ccc2c(-c3cnc4[nH]cc(C(=O)N[C@H](C)C(=O)N5CC(C#N)C5)c4n3)nn(C)c2c1
Second: CCc1ccc(NC2=CC3=NCN(C)C3=CC2(F)C(N)=O)c(F)c1 (configuration not stated)
The melting point of the first is lower: 185 to 190 °C for the first, 249 to 251 °C for the second.

Compared with `CCOC(=O)C1CN(C(=O)c2cc(OC)c(OC)c(OC)c2)CCN1C(=O)C1=Cc2cc(OC)c(OC)cc2CCC1` (configuration not stated), `COc1cc(OC)cc(C(=O)NCC(=O)N2c3ccccc3N(Cc3ccccc3)C(=O)[C@H]3CCC[C@H]32)c1` (relative stereo) is higher in melting point: 108 to 110 °C for the first, 113 to 115 °C for the second.

Compared with `O=C(O)Cc1cc(N=Nc2ccc(S(=O)(=O)Nc3ccccn3)cc2)ccc1O`, `O=C(O)c1ccccc1Nc1c(O)ccc2ccccc12` is higher in melting point: 135 °C for the first, 214 to 217 °C for the second.

Compared with `Cc1[nH]cnc1CSCCO`, `O=C(NCCCl)Sc1ncnc2nc[nH]c12` is higher in melting point: 74 to 76 °C for the first, 221 to 223 °C for the second.

Compared with `CCn1c(N)c(-c2nccn2COCC[Si](C)(C)C)c(=O)c2ccc(Cl)nc21`, `CC(=O)OCCOCn1c(Cl)nc2c(Cl)c(Cl)c(Cl)c(Cl)c21` is higher in melting point: 90 °C for the first, 119 °C for the second.

First: C=CCONC(=O)c1nc(-c2ccc(Cl)c(OC)c2F)nc(N)c1OC
Second: COCOc1c(C)cc(-c2ccc(C(=O)OC)cc2)cc1C
The melting point of the first is higher: 148 to 150 °C for the first, 100 to 101 °C for the second.

First: CNc1nc(C(F)(F)F)cc(=O)n1-c1c(Cl)cc(C(F)(F)F)cc1Cl
Second: O=C(O)c1cnn2c(C(F)(F)F)cc(-c3ccc(C(F)(F)F)cc3)nc12
The melting point of the first is lower: 211 to 214 °C for the first, 248 °C for the second.

Compared with `Cc1nnc(Cl)c(-c2c(F)cc(F)cc2F)c1-c1cccs1`, `CSc1cc(-c2ccccc2)nc(-c2cccc(C(F)(F)F)c2)c1` is lower in melting point: 90 to 92 °C for the first, 79.1 °C for the second.

First: CC1CC(=O)c2c(C(=O)Nc3ccc4c(c3)OC(C)(C)O4)c[nH]c2C1 (configuration not stated)
Second: Cc1ccc(Sc2ccc3c(c2)CC[C@H]2NC(=O)CC[C@]32C)cc1
The melting point of the first is higher: 297 to 299 °C for the first, 209 to 212 °C for the second.

First: CC1(c2ccc(F)cc2)OC(C=Cc2ccccn2)=CC1=O (configuration not stated)
Second: Cc1cc(C)c(Nc2nc(C)ccc2S(=O)(=O)c2ccc(OCc3ccc(F)cc3)cc2)c(C)c1
The melting point of the first is lower: 70 to 72 °C for the first, 178 to 180 °C for the second.

First: O=C(CCCl)c1ccc2[nH]c3ccccc3c2c1
Second: CN1CCC(c2n[nH]c3ccccc23)CC1
The melting point of the first is lower: 148 to 151 °C for the first, 168 to 170 °C for the second.

Compared with `COC[C@H]1CCCN1NC(=O)Nc1cccc2c1C(=O)c1c-2n[nH]c1-c1ccc(C(=O)N2CCN(C(=O)OC(C)(C)C)CC2)s1`, `CC(C)(C)OC(=O)N1CCC(Oc2cccc3[nH]ccc23)C1` (configuration not stated) is lower in melting point: > 300 °C for the first, 164 to 165 °C for the second.

First: Fc1cc2c(c(OCCNCCCc3c[nH]c4ccc(F)cc34)c1)OCCC2
Second: O=C(Nc1ccc(Oc2ccnc(NCC3OCCO3)n2)c2ccccc12)c1cc(F)cc(N2CCOCC2)c1
The melting point of the first is higher: 137 to 138 °C for the first, 122 to 124 °C for the second.

First: CC(C)C(O)CCC(C)C1CCC2C3CC(O)C4CC(O)CCC4(C)C3CCC12C (configuration not stated)
Second: C=CCOC1CC2C3CCC4=CC(=O)CCC4(C)C3(F)C(O)CC2(C)C1(O)C(=O)CO (configuration not stated)
The melting point of the first is lower: 169 to 173 °C for the first, 189 to 191 °C for the second.

Compared with `O=C1CC(NC(=O)C2CCCN3C(=O)CCC(NC(=O)c4ccccc4)C(=O)N23)C(OCCc2ccccc2)O1` (configuration not stated), `O=C(CBr)c1ccc(OCC(=O)N2CCOCC2)cc1` is higher in melting point: 101 °C for the first, 105 to 107 °C for the second.

First: OC1CCc2cc(Cl)c(Cl)cc2C1 (configuration not stated)
Second: ClCOc1nc(Cl)c(Cl)cc1Cl
The melting point of the first is higher: 103 to 105 °C for the first, 94 to 96 °C for the second.

First: Cc1cc(N2CCC3(CC2)OCCO3)c2cccc(Br)c2n1
Second: O=C1CCCCN1S(=O)(=O)c1ccc(N2CCCCC2)cc1
The melting point of the first is higher: 156 to 158 °C for the first, 140 to 145 °C for the second.

Compared with `Cc1ccc(N(c2ccc(-c3ccccc3)cc2)c2ccc(C)c(C)c2)cc1C`, `CC(C)(C)c1cc(C(=O)NCC(=O)Nc2ccc(N=C(N)c3cccs3)cc2)cc(C(C)(C)C)c1O` is higher in melting point: 114 °C for the first, > 250 °C for the second.

Compared with `O=C(Cl)/C=C/c1cccc(Br)c1`, `CCC(C)(CC)NC(=NC#N)Nc1cccnc1` is higher in melting point: 85 to 86 °C for the first, 184 to 186 °C for the second.

First: O=C(O)CCCCCCCCCCCCCCCCCCI
Second: Cc1n[nH]c(CCCCn2cnc(NC(N)=NCC(F)(F)F)n2)n1
The melting point of the first is lower: 70 to 71.5 °C for the first, 175 to 176 °C for the second.
